In patent US20220030866A1, “CONJUGATES OF AUXIN ANALOGS” (The State of Israel, Ministry of Agriculture & Rural …, priority 2019, published 2022):
Marks after values point to notes of the source that are not given here.

Experiments:
Format in all cases: in vivo
[1] = test system: cuttings from mature Eucalyptus grandis trees; test: rooting of cuttings from mature Eucalyptus grandis trees; details: for root number compared to IBA control, in words: Example 12: 6000 ppm IBA and 50 μM conjugate dip plus spray
Description: Eight-year-old Eucalyptus grandis plants were grown from seeds and placed in a net house in 20 liter pots containing peat and tuff (70:30, v/v), drip irrigated and fertilized with 3 liters of Shefer™ 737 liquid fertilizer (ICL Fertilizers, Israel) per cubic meter of water. Cuttings were collected from branches which grew 2-2.5 meters above the ground. Cuttings were 2-3 mm thick branches, 15 cm long, with 1-2 pairs of leaves. The leaf blades were cut in half to decrease transpiration. Cuttings were treated with 6000 ppm IBA (potassium indole-3-butyric acid) for 1 minute with or without 100 μM of each tested compound. The tested compounds were either applied to the base of the cutting, with or without IBA and/or sprayed on the foliage in the presence of 0.05% Triton™ X-100 surfactant. Cuttings were rooted in rooting tables heated to 25° C. under constant 90% humidity, in a controlled-climate greenhouse. The rooting medium contained crushed polystyrene foam: vermiculite no. 3: pit (3:2:1, v/v/v). Rooting was recorded after 30-60 days. Roots system architecture was analyzed by WinRHIZO™ system scanner and software.
Exemplary conjugates prepared as described in Example 1 were tested for their ability to promote adventitious root (AR) formation in cuttings from mature eucalyptus (Eucalyptus grandis) trees. In this model, AR formation is difficult to induce, with 5-15% root development in the presence of IBA potassium salt [Abu-Abied et al., Plant J 2012, 71:787-799], such that effective AR formation indicates a potent root formation activity.
Various concentrations and mode of applications were tested for each compound in the presence or absence of IBA (the “gold standard” rooting enhancer). A concentration of 100 μM of each conjugate was used for an initial screen of 37 conjugates, in which the compounds were applied to the base of the cutting by dipping (submerging the cutting base in a solution of the conjugate for one minute) or to the foliage by spraying. After 45 days, the cuttings were scored for the presence of callus or roots.
Conjugates prepared as described herein were evaluated in a Eucalyptus grandis rooting model, according to procedures such as described hereinabove. The bases of cuttings (a 12-15 cm long branch with the two upper leaves, whose blades were cut in half) were dipped in a solution containing 6000 ppm IBA potassium salt and 50 μM of conjugate for 1 minute, and the leaves were sprayed with 50 μM of the same conjugate (mixed with 0.5% Triton™ X-100 surfactant). The cuttings were imbedded in a heated (25° C.) rooting table containing a 1:2:3 ratio of peat:vermiculite:polystyrene, under 90% relative humidity.

[2] = test system: avocado rootstock cuttings; test: rooting of avocado rootstock cuttings; details: VC801 rootstock
Text: Avocado rootstock is extremely difficult to root. Currently, the common technique for propagating clones of avocado rootstock is to graft the desired rootstock on a seedling, and transfer to the dark to generate an etiolated branch. This branch can be rooted and grafted with the desired variety while still grafted on the seed [Frolich & Platt, California Avocado Society 1971-72 Yearbook 1972, 55:97-109]. However, the preparation of such twice-grafted seedlings is time-consuming and expensive.
The ability of exemplary conjugates to promote rooting in green avocado cuttings (in the presence of IBA) was therefore examined. In particular, Compounds 2h (MCPA-methanol), 4b (NAA-β-alanine methyl ester), 3g (2-DP-methyl-4-aminobenzoate), 3f (2-DP-p-toluidine), 1l (4-CPA-morpholine) and is (4-CPA-D-Trp) were tested.
(§1) Exemplary conjugates were also tested for rooting the hard-to-root species of avocado (VC801 rootstock) and argan, according to procedures described hereinabove.

[3] = test system: argan (Argania spinosa) cuttings; test: rooting of argan cuttings; details: in vivo
Description: The ability of exemplary conjugates to promote rooting in plants which are recalcitrant to rooting (in addition to the results obtained with Eucalyptus grandis in Example 3) was examined using cuttings of argan (Argania spinosa) and jojoba (Simmondsia chinensis) in a commercial nursery (Shorashim). The argan and jojoba cuttings were treated with 100 μM of a conjugate (any of Compounds 10-1t) with 6000 ppm IBA. The common treatment T-8 (talc with 8000 ppm IBA and a fungicide) or 6000 ppm IBA (without conjugate) served as a control.
as §1

Arabidopsis seedlings [4] = test: adventitious root formation in intact etiolated Arabidopsis seedlings
Description: (§2) Adventitious roots (ARs) were induced in intact plants, using previously described procedures [Gutierrez et al., Plant Cell 2009, 21:3119-3132; Abu-Abied et al., Plant J 2012, 71:787-799; Rasmussen et al., Plant Physiol 2012, 158:1976-1987]. Briefly, seeds were germinated on MS/0.8% agar plates supplemented with 3% sucrose. The plates were kept in the dark for 2 days at 4° C., then 5 days at 22° C. in the dark, 2 days in the light, 3 days in the dark and then additional 4 days in the light to complete 2 weeks when roots were counted using a stereoscope. Sensitivity to auxin and/or auxin analogs was determined by following root elongation on vertical plates. The 4-day-old seedlings were transferred to MS plates containing 0.05 or 0.5 μM IAA and the root length was measured after 5 days, including the number of LRs in each root and calculation of the LR density. Each treatment experiment included 10-15 plants and was repeated 3 times.
In a third assay utilizing an Arabidopsis model, induction of adventitious root AR formation in intact plants was examined in the presence of 50 nM of tested compounds, which included 5 days incubation in the dark, followed by a shift to the light, according to procedures described by Sorin et al. [Plant Cell 2005, 17:1343-1359].
Conjugates prepared as described herein were evaluated in an Arabidopsis rooting model, according to procedures such as described hereinabove. Seeds were germinated and kept in the dark for 4 days. The etiolated seedlings were then incubated for 1 hour in 10 μM of each compound and then transferred to vertical MS medium-containing plates.

DR5:venus marker = test: auxin activity by DR5:venus fluorescence in Arabidopsis plants; details: 10 μM
Description: Imaging was performed using an SP8 Leica confocal microscope including solid-state lasers producing 405, 488, 514 and 552 nm light, and hybrid or PMT detectors. Objectives were either PL APO 20×/0.75, WD 0.62 mm or PL APO 63×/1.2 WD 0.3 mm. For fluorescence measurements, the Imaris™ spot detection option (Bitplane A.G.) was used to segment nuclei and calculate the average signal intensity.
One technique for assessing auxin activity of the 4-CPA amino acid conjugates utilized plants expressing nucleus-localized, fluorescent DR5:venus marker, the expression level of which is an indicator of intracellular auxin activity [Laskowski et al., PLoS Biol 2008, 6:e307]. Four days old seedlings grown on regular MS medium were transferred to plates containing 10 μM of the tested compounds and fluorescence was inspected by confocal microscope after 24 hours.
In order to assess the ability of the abovementioned sodium salts to penetrate the cells and activate an auxin response, an Arabidopsis DR5-Venus model was utilized (as described hereinabove). The plants were exposed to 10 μM of each compound for 24 hour; MS medium was used as a negative control, and the related Compounds 1p, 1r and 1t were used as positive controls.

Arabidopsis seedlings [5] = test: root elongation inhibition in Arabidopsis seedlings; details: 50 nM, after 5 days
Description: as §2
A common technique for evaluating auxin activity is by determining the ability of a compound to inhibit root elongation [Zolman et al., Genetics 2000, 156:1323-1337]. In order to use this assay for comparing auxin activities of different conjugates, the minimum concentration of free 4-CPA that is active in the root elongation inhibition assay was determined. Four days old seedlings were placed in vertical plates containing increasing concentrations of 4-CPA. The root lengths were marked daily during 5 days.
Based on the above results, the effect of conjugates of 4-CPA (Compounds 1o-1t) on root elongation after 5 days was determined at concentrations of 50 nM.

mung bean cuttings = test: rooting of mung bean cuttings (number of adventitious roots per cutting); details: tested at 2, 10 or 50 μM
Description: Mung bean cuttings have been used for many years as a model for assessing the effect of plant hormones and synthetic chemicals on the rooting process. In the present study, this system was used to ascertain activity of conjugates in inducing adventitious root (AR) formation, and to evaluate the rate of conjugate hydrolysis that releases the free active auxin. […] The rooting activity in this system is determined by the number of adventitious roots per cutting.
The mung bean model was used to examine the activity of conjugates of three phenoxy acids, 4-CPA, MCPA, and 2-DP, on rooting. For comparison, plants were treated with (unconjugated) IBA or with 2-DP conjugated to glycine methyl ester (Gly-ME).

[6] = test system: Pinus halepensis cuttings; test: rooting and root development in pine cuttings; details: 400 ppm IBA potassium salt + 5 ppm conjugate, 4 hours dip; 12 weeks
Description: The effects of exemplary D-amino acid conjugates of 4-CPA (Compounds to and Is) on rooting in Pinus halepensis cuttings were compared with those of 2-DP-glycine methyl ester conjugate (2-DP-Gly). Rooting mature pine cuttings (i.e., cuttings that are taken from trees more than 4 years old) is very difficult.
Apical cuttings were taken from 7-year-old trees, stored for 4 weeks at 4° C., and treated by dipping the cutting bases for 4 hours in the following solution: 400 ppm IBA potassium salt+5 ppm tested conjugate+0.1% Amistar™ fungicide (250 grams/liter azoxystrobin). The cuttings were evaluated after 12 weeks.

SMILES: CC[C@H](C)[C@H](NC(=O)COc1ccc(Cl)cc1)C(=O)OC [4-CPA-L-Ile-methyl ester]
- root number compared to IBA control, in words [1]: promoted an increase in root number
- rooting of cuttings, repeated experiment in a different season ([1]; Example 12 repeat: 6000 ppm IBA with 50 μM conjugate, or IBA control): 50%
- root architecture / root length of VC801 avocado cuttings compared to IBA control, in words [2]: more roots per cutting and considerably longer roots
- rooting of VC801 avocado cuttings ([2]; conjugate, or IBA control): 60%
- number of roots per cutting in argan clone YM3 compared to IBA control, in words [3]: considerably increased the number of roots per cutting

SMILES: COC(=O)[C@H](CC(C)C)NC(=O)COc1ccc(Cl)cc1 [4-CPA-L-Leu-methyl ester]
- average number of adventitious roots (Arabidopsis seedlings [4]; Example 12: etiolated seedlings, 1 hour in 10 μM): 10
- root number compared to IBA control, in words [1]: promoted an increase in root number
- root architecture / root length of VC801 avocado cuttings compared to IBA control, in words [2]: considerably increased root length
- number of roots per cutting in argan clone YM3 compared to IBA control, in words [3]: considerably increased the number of roots per cutting

SMILES: COC(=O)[C@H](NC(=O)COc1ccc(Cl)cc1)C(C)C [Compound 1o]
- adventitious roots formed on average (Arabidopsis seedlings [4]; intact etiolated seedlings, 50 nM, FIG. 17 legend 10 μM for one hour): 0.5±0.3
- DR5 fluorescence (auxin activity), in words (DR5:venus marker): significantly lower fluorescence
- appearance of the roots compared with IBA alone ([1]; 6000 ppm IBA with 100 μM compound, submersion and spraying): appeared more branched
- effect on root elongation relative to control, in words (Arabidopsis seedlings [5]): did not affect root elongation
- effect on AR formation in mung bean cuttings, in words (mung bean cuttings): induced rooting to a degree positively correlated with concentration
- Degree of root development Medium (%) [6]: 14.3%
- Degree of root development Weak (%) [6]: 7.2%
- Degree of root development Well-developed (%) [6]: 71.4* %
- Rooting rate (%) [6]: 100%

SMILES: COC(=O)[C@H](CC(N)=O)NC(=O)COc1ccc(Cl)cc1 [4-CPA-L-Asn-methyl ester]
- root architecture / root length of VC801 avocado cuttings compared to IBA control, in words [2]: considerably increased root length
- number of roots per cutting in argan clone YM3 compared to IBA control, in words [3]: considerably increased the number of roots per cutting

SMILES: COC(=O)[C@H](Cc1cnc[nH]1)NC(=O)COc1ccc(Cl)cc1 [4-CPA-L-His-methyl ester]
- root architecture / root length of VC801 avocado cuttings compared to IBA control, in words [2]: considerably increased root length
- number of roots per cutting in argan clone YM3 compared to IBA control, in words [3]: considerably increased the number of roots per cutting
